pEC50: −log10 of the molar value. Where a name gives a salt, the structure may show the parent alone. Read-outs that look alike come from different tables or passages of the source.
Test system: NQO1 specific enzyme activity in BEAS-2B cells
Experiment: BEAS-2B NQO1 MTT assay
Format: cell-based
Conditions: BEAS-2B cells, 48 hours with compound, MTT readout, read-out: EC50 of NQO1 specific activity induction
In short: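 NQO1 specific activity, an NRF2 activation marker, read kinetically as absorbance change at 570 nm for 30 min after MTT cocktail addition to crude lysates of BEAS-2B cells exposed 48 h to compound. Three-parameter fit of Delta OD/min against log concentration gives EC50; lysate portion used for Cell Titer Glo.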

Row | Structure (SMILES) | pEC50 (Homo sapiens, BEAS-2B, 48 h) | further results
1 | CC[C@@H]1CN(Cc2cc([C@@H](c3ccc4c(nnn4CC)c3C)C(C)(C)C(=O)O)ccc2C)Cc2cnccc2O1 [Example 188, (S)-3-(3-(((R)-2-Ethyl-2,3-dihydropyrido[3,4-f][1,4]oxazepin-4(5H)-yl)methyl)-4-methylphenyl)-3-(1-ethyl-4-methyl-1H-benzo[d][1,2,3]triazol-5-yl)-2,2-dimethylpropanoic Acid] | > 9.00 | 
2 | CC[C@@H]1CN(Cc2cc(C(CCc3cn(CC)nn3)C(C)(C)C(=O)O)ccc2C)Cc2ncccc2O1 (single isomer, unassigned) [Example 252] |  | pEC50: 7.00 to 8.00
3 | CC[C@@H]1CN(Cc2cc(C(CC(=O)O)c3ccc4c(c3)nnn4C)ccc2C)Cc2ccccc2O1 (stereo partly drawn) [Example 91, 3-(3-(((R)-2-Ethyl-2,3-dihydrobenzo[f][1,4]oxazepin-4(5H)-yl)methyl)-4-methylphenyl)-3-(1-methyl-1H-benzo[d][1,2,3]triazol-5-yl)propanoic acid] | 6.00 to 7.00 | 
4 | CCCn1cc(CCC(c2ccc(C)c(Cn3ccnc3CN3CCC(CC)CC3)c2)C(C)(C)C(=O)O)nn1 (single isomer, unassigned) [Example 247, 3-(3-((2-((4-Ethylpiperidin-1-yl)methyl)-1H-imidazol-1-yl)methyl)-4-methylphenyl)-2,2-dimethyl-5-(1-propyl-1H-1,2,3-triazol-4-yl)pentanoic Acid] |  | pEC50: 8.00 to 9.00
5 | CCn1nnc2c(F)c([C@H](c3ccc(C)c(CN4Cc5cccnc5OC(C)(C)C4)c3)[C@@H](C)C(=O)O)ccc21 [Example 195, (2R,3S)-3-(3-((2,2-Dimethyl-2,3-dihydropyrldo[3,2-f][1,4]oxazepin-4(5H)-yl)methyl)-4-methylphenyl)-3-(1-ethyl-4-fluoro-1H-benzo[d][1,2,3]triazol-5-yl)-2-methylpropanoic acid] | 7.00 to 8.00 | 
6 | Cc1c(C(CC(=O)O)c2ccc(F)c(CN3Cc4ncccc4OC(C)(C)C3)c2)ccc2c1nnn2C (single isomer, unassigned; isomer 1) [Example 261] | 6.00 to 7.00 | 
7 | CCC1(C)CN(Cc2cc([C@@H](c3ccc4c(nnn4C)c3C)C(C)(C)C(=O)O)ccc2C)Cc2ccccc2O1 (stereo partly drawn) [Example 240, (3S)-3-(1,4-Dimethyl-1H-benzo[d][1,2,3]triazol-5-yl)-3-(3-((2-ethyl-2-methyl-2,3-dihydrobenzo[f][1,4]oxazepin-4(5H)-yl)methyl)-4-methylphenyl)-2,2-dimethylpropanoic Acid] | 8.00 to 9.00 | 
8 | CCC1CN(Cc2cc([C@@H](c3ccc4c(nnn4C)c3C)C(C)C(=O)O)ccc2C)Cc2ccccc2O1 (stereo partly drawn) [Example 100, (3S)-3-(1,4-dimethyl-1H-benzo[d][1,2,3]triazol-5-yl)-3-(3-((2-ethyl-2,3-dihydrobenzo[f][1,4]oxazepin-4(5H)-yl)methyl)-4-methylphenyl)-2-methylpropanoic Acid] | 7.00 to 8.00 | 
9 | Cc1ccc([C@H](c2ccc3c(nnn3C)c2C)C(C)(C)C(=O)O)cc1Cn1ccnc1CC1CCCCCC1 [Example 125, (R)-3-(3-((2-(Cycloheptylmethyl)-1H-imidazol-1-yl)methyl)-4-methylphenyl)-3-(1,4-dimethyl-1H-benzo[d][1,2,3]triazol-5-yl)-2,2-dimethylpropanoate, Sodium salt] | 6.00 to 7.00 | 
10 | CCCC1CN(Cc2cc(C(CC(=O)O)c3ccc4c(nnn4C)c3C)ccc2C)Cc2ccccc2O1 (centres unmarked) [Example 71, 3-(1,4-dimethyl-1H-benzo[d][1,2,3]triazol-5-yl)-3-(4-methyl-3-((2-propyl-2,3-dihydrobenzo[f][1,4]oxazepin-4(5H)-yl)methyl)phenyl)propanoic Acid, Formic Acid Salt] | 6.00 to 7.00 | 
11 | CC[C@@H]1CN(Cc2cc(C(CCc3cn(CC)nn3)C(C)(C)C(=O)O)ccc2C)Cc2cccnc2O1 (stereo partly drawn) [Example 217, 5-(1-Ethyl-1H-1,2,3-triazol-4-yl)-3-(3-(((R)-2-ethyl-2,3-dihydropyrido[3,2-f][1,4]oxazepin-4(5H)-yl)methyl)-4-methylphenyl)-2,2-dimethylpentanoic Acid] | 7.00 to 8.00 | 
12 | CCN1CCN(Cc2cc(C(c3ccc4c(nnn4C)c3C)C(C)(C)C(=O)O)ccc2C)Cc2ccccc21 (centres unmarked) [Example 111, 3-(1,4-dimethyl-1H-benzo[d][1,2,3]triazol-5-yl)-3-(3-((1-ethyl-2,3-dihydro-1H-benzo[e][1,4]diazepin-4(5H)-yl)methyl)-4-methylphenyl)-2,2-dimethylpropanoic Acid, Formic Acid Salt] | 7.00 to 8.00 | 
13 | Cc1ccc(C(c2ccc3c(nnn3C)c2C)C(C)(C)C(=O)O)cc1Cn1ccnc1CN1CCCCCC1 (centres unmarked) [Example 141, 3-(3-((2-(Azepan-1-ylmethyl)-1H-imidazol-1-yl)methyl)-4-methylphenyl)-3-(1,4-dimethyl-1H-benzo[d][1,2,3]triazol-5-yl)-2,2-dimethylpropanoic acid, trifluoroacetic acid salt] |  | pEC50 (trifluoroacetic acid salt): 5.00 to 6.00
14 | CCC1CCN(Cc2nccn2Cc2cc(C(CCc3cn(CC)nn3)C(C)(C)C(=O)O)ccc2Cl)CC1 (centres unmarked) [Example 230, 3-(4-Chloro-3-((2-((4-ethylpiperidin-1-yl)methyl)-1H-imidazol-1-yl)methyl)phenyl)-5-(1-ethyl-1H-1,2,3-triazol-4-yl)-2,2-dimethylpentanoic Acid] | 8.00 to 9.00 | 
15 | CCC1CCN(Cc2nccn2Cc2cc(C(CCc3cn(CC)nn3)C(C)(C)C(=O)O)ccc2C)CC1 (single isomer, unassigned) [Example 249, 5-(1-ethyl-1H-1,2,3-triazol-4-yl)-3-(3-((2-((4-ethylpiperidin-1-yl)methyl)-1H-imidazol-1-yl)methyl)-4-methylphenyl)-2,2-dimethylpentanoic Acid] |  | pEC50: 8.00 to 9.00
16 | Cc1ccc([C@@H](CC(=O)O)c2ccc3c(nnn3C)c2C)cc1CN1Cc2ncccc2OC(C)(C)C1 [Example 169, (R)-3-(1,4-Dimethyl-1H-benzo[d][1,2,3]triazol-5-yl)-3-(3-((2,2-dimethyl-2,3-dihydropyrido[2,3-f][1,4]oxazepin-4(5H)-yl)methyl)-4-methylphenyl)propanoic acid, 0.5 Formic acid salt] | 7.00 to 8.00 | 
17 | CC[C@@H]1CN(Cc2cc(C(CC(=O)O)c3ccc4c(nnn4C)c3C)ccc2C)Cc2cccnc2O1 (stereo partly drawn) [Example 116, 3-(1,4-Dimethyl-1H-benzo[d][1,2,3]triazol-5-yl)-3-(3-(((R)-2-ethyl-2,3-dihydropyrido[3,2-f][1,4]oxazepin-4(5H)-yl)methyl)-4-methylphenyl)propanoic Acid, Formic Acid Salt] | 5.00 to 6.00 | 
18 | CCn1cc(CCC(c2ccc(C)c(CN3Cc4cnccc4OC(C)(C)C3)c2)C(C)C(=O)O)nn1 (single isomer, unassigned) [Example 227, 3-(3-((2,2-Dimethyl-2,3-dihydropyrido[3,4-f][1,4]oxazepin-4(5H)-yl)methyl)-4-methylphenyl)-5-(1-ethyl-1H-1,2,3-triazol-4-yl)-2-methylpentanoic acid, Trifluoroacetic acid salt] | 6.00 to 7.00 | 
19 | Cc1ccc([C@@H](c2ccc3c(nnn3C)c2C)C(C)(C)C(=O)O)cc1CN1Cc2ncccc2OC(C)(C)C1 [Example 30, formic acid salt] | 8.00 to 9.00 | 
20 | CC[C@@H]1CN(Cc2cc([C@H](c3ccc4c(nnn4CC)c3C)C(C)(C)C(=O)O)ccc2C)Cc2cnccc2O1 [Example 189, (R)-3-(3-(((R)-2-ethyl-2,3-dihydropyrido[3,4-f][1,4]oxazepin-4(5H)-yl)methyl)-4-methylphenyl)-3-(1-ethyl-4-methyl-1H-benzo[d][1,2,3]triazol-5-yl)-2,2-dimethylpropanoic Acid] | 8.00 to 9.00 | 
21 | CC[C@@H]1CN(Cc2cc(C(CC(=O)O)c3cnc4c(nnn4C)c3C)ccc2C)Cc2ccccc2O1 (stereo partly drawn) [Example 47, 3-(3,7-Dimethyl-3H-[1,2,3]triazolo[4,5-b]pyridin-6-yl)-3-(3-(((R)-2-ethyl-2,3-dihydrobenzo[f][1,4]oxazepin-4(5H)-yl)methyl)-4-methylphenyl)propanoic Acid, Trifluoroacetic Acid Salt] | 6.00 to 7.00 | 
22 | COc1cc(C(CC(=O)O)c2ccc(Cl)c(CN3CCCC(n4cccn4)C3)c2)c(C)c2nnn(C)c12 (centres unmarked) [Example 164, 3-(3-((3-(1H-pyrazol-1-yl)piperidin-1-yl)methyl)-4-chlorophenyl)-3-(7-methoxy-1,4-dimethyl-1H-benzo[d][1,2,3]triazol-5-yl)propanoic Acid, Formic Acid Salt] | 6.00 to 7.00 | 
23 | Cc1c(C(CC(=O)O)c2ccc(Cl)c(CN3CCOc4ccccc4C3)c2)ccc2c1nnn2C (centres unmarked) [Example 99, 3-(4-Chloro-3-((2,3-dihydrobenzo[f][1,4]oxazepin-4(5H)-yl)methyl)phenyl)-3-(1,4-dimethyl-1H-benzo[d][1,2,3]triazol-5-yl)propanoic Acid, Formic Acid Salt] | 5.00 to 6.00 | 
24 | CC[C@@H]1CN(Cc2cc([C@H](c3ccc4c(nnn4C)c3C)C(C)(C)C(=O)O)ccc2C)Cc2ccccc2O1 [Example 27, (R)-3-(1,4-Dimethyl-1H-benzo[d][1,2,3]triazol-5-yl)-3-(3-(((R)-2-ethyl-2,3-dihydrobenzo[f][1,4]oxa-zepin-4(5H)-yl)methyl)-4-methylphenyl)-2,2-dimethylpropanoic acid] | 6.00 to 7.00 | 
25 | CC[C@@H]1CN(Cc2cc([C@H](CC(=O)O)c3ccc4c(nnn4C)c3C)ccc2C)Cc2cccc(F)c2O1 [Example 58, (S)-3-(1,4-Dimethyl-1H-benzo[d][1,2,3]triazol-5-yl)-3-(3-(((R)-2-ethyl-9-fluoro-2,3-dihydrobenzo[f][1,4]oxazepin-4(5H)-yl)methyl)-4-methylphenyl)propanoic acid, Sodium salt] | 7.00 to 8.00 | 
26 | Cc1ccc(C(CC(=O)O)c2ccc3c(nnn3C)c2C)cc1CN1Cc2ccccc2OC(C(C)C)C1 (centres unmarked) [Example 72, 3-(1,4-dimethyl-1H-benzo[d][1,2,3]triazol-5-yl)-3-(3-((2-isopropyl-2,3-dihydrobenzo[f][1,4]oxazepin-4(5H)-yl)methyl)-4-methylphenyl)propanoic acid, formic acid salt] | 5.00 to 6.00 | 

Source: patent US10604509B2, “Nrf2 regulators” (GlaxoSmithKline Intellectual Property Development Limited, priority 2015, dated 2020)
